In the NIST ThermoML archive (doi:10.1021/acs.jced.6b00332):

Test: mn = molality of the nth substance listed, in mol/kg
Conditions: 100 kPa, Liquid; for speed of sound: Frequency=3 MHz, Sing-around technique in a fixed-path interferometer; for mass density: Vibrating tube method

CCCCCCCCCCCC[N+](C)(C)C.[Br-] [dodecyltrimethylammonium bromide] + O
Conditions | mass density [kg/m3] | speed of sound [m/s]
293.15 K, m1 = 0.003 | 998.31 | 1483.3
293.15 K, m1 = 0.006 | 998.37 | 1484.2
293.15 K, m1 = 0.009 | 998.43 | 1484.9
293.15 K, m1 = 0.012 | 998.49 | 1485.6
293.15 K, m1 = 0.015 | 998.54 | 1486.3
293.15 K, m1 = 0.018 | 998.6 | 1486.7
293.15 K, m1 = 0.021 | 998.65 | 1486.8
293.15 K, m1 = 0.024 | 998.7 | 1486.9
293.15 K, m1 = 0.027 | 998.75 | 1487
293.15 K, m1 = 0.03 | 998.81 | 1487
293.15 K, m1 = 0.033 | 998.87 | 1487.1
293.15 K, m1 = 0.036 | 998.92 | 1487.1
293.15 K, m1 = 0.039 | 998.95 | 1487.1
293.15 K, m1 = 0.042 | 999 | 1487.1
293.15 K, m1 = 0.045 | 999.05 | 1487
298.15 K, m1 = 0.003 | 997.2 | 1497.2
298.15 K, m1 = 0.006 | 997.26 | 1497.9
298.15 K, m1 = 0.009 | 997.32 | 1498.6
298.15 K, m1 = 0.012 | 997.37 | 1499.2
298.15 K, m1 = 0.015 | 997.43 | 1499.9
298.15 K, m1 = 0.018 | 997.49 | 1500.2
298.15 K, m1 = 0.021 | 997.53 | 1500.3
298.15 K, m1 = 0.024 | 997.58 | 1500.3
298.15 K, m1 = 0.027 | 997.63 | 1500.4
298.15 K, m1 = 0.03 | 997.67 | 1500.4
298.15 K, m1 = 0.033 | 997.71 | 1500.5
298.15 K, m1 = 0.036 | 997.75 | 1500.4
298.15 K, m1 = 0.039 | 997.79 | 1500.5
298.15 K, m1 = 0.042 | 997.82 | 1500.4
298.15 K, m1 = 0.045 | 997.85 | 1500.5
303.15 K, m1 = 0.003 | 995.71 | 1509.7
303.15 K, m1 = 0.006 | 995.76 | 1510.3
303.15 K, m1 = 0.009 | 995.82 | 1511
303.15 K, m1 = 0.012 | 995.87 | 1511.6
303.15 K, m1 = 0.015 | 995.92 | 1512
303.15 K, m1 = 0.018 | 995.97 | 1512.2
303.15 K, m1 = 0.021 | 996.02 | 1512.2
303.15 K, m1 = 0.024 | 996.07 | 1512.2
303.15 K, m1 = 0.027 | 996.11 | 1512.2
303.15 K, m1 = 0.03 | 996.16 | 1512.2
303.15 K, m1 = 0.033 | 996.21 | 1512.2
303.15 K, m1 = 0.036 | 996.24 | 1512.2
303.15 K, m1 = 0.039 | 996.29 | 1512.3
303.15 K, m1 = 0.042 | 996.32 | 1512.2
303.15 K, m1 = 0.045 | 996.36 | 1512.3
308.15 K, m1 = 0.003 | 994.26 | 1520.3
308.15 K, m1 = 0.006 | 994.31 | 1520.9
308.15 K, m1 = 0.009 | 994.36 | 1521.5
308.15 K, m1 = 0.012 | 994.41 | 1522
308.15 K, m1 = 0.015 | 994.46 | 1522.6
308.15 K, m1 = 0.018 | 994.51 | 1522.6
308.15 K, m1 = 0.021 | 994.55 | 1522.6
308.15 K, m1 = 0.024 | 994.59 | 1522.6
308.15 K, m1 = 0.027 | 994.63 | 1522.6
308.15 K, m1 = 0.03 | 994.67 | 1522.5
308.15 K, m1 = 0.033 | 994.72 | 1522.5
308.15 K, m1 = 0.036 | 994.77 | 1522.5
308.15 K, m1 = 0.039 | 994.79 | 1522.5
308.15 K, m1 = 0.042 | 994.82 | 1522.6
308.15 K, m1 = 0.045 | 994.84 | 1522.5
313.15 K, m1 = 0.003 | 992.29 | 1529.4
313.15 K, m1 = 0.006 | 992.33 | 1529.9
313.15 K, m1 = 0.009 | 992.38 | 1530.4
313.15 K, m1 = 0.012 | 992.42 | 1530.9
313.15 K, m1 = 0.015 | 992.47 | 1531.4
313.15 K, m1 = 0.018 | 992.51 | 1531.5
313.15 K, m1 = 0.021 | 992.55 | 1531.4
313.15 K, m1 = 0.024 | 992.59 | 1531.4
313.15 K, m1 = 0.027 | 992.63 | 1531.3
313.15 K, m1 = 0.03 | 992.67 | 1531.3
313.15 K, m1 = 0.033 | 992.71 | 1531.2
313.15 K, m1 = 0.036 | 992.77 | 1531.3
313.15 K, m1 = 0.039 | 992.81 | 1531.3
313.15 K, m1 = 0.042 | 992.87 | 1531.3
313.15 K, m1 = 0.045 | 992.9 | 1531.2
318.15 K, m1 = 0.003 | 990.28 | 1536.3
318.15 K, m1 = 0.006 | 990.33 | 1536.7
318.15 K, m1 = 0.009 | 990.37 | 1537.2
318.15 K, m1 = 0.012 | 990.39 | 1537.8
318.15 K, m1 = 0.015 | 990.42 | 1538.2
318.15 K, m1 = 0.018 | 990.45 | 1538.4
318.15 K, m1 = 0.021 | 990.48 | 1538.6
318.15 K, m1 = 0.024 | 990.52 | 1538.7
318.15 K, m1 = 0.027 | 990.55 | 1538.7
318.15 K, m1 = 0.03 | 990.57 | 1538.7
318.15 K, m1 = 0.033 | 990.61 | 1538.9
318.15 K, m1 = 0.036 | 990.64 | 1538.9
318.15 K, m1 = 0.039 | 990.67 | 1539
318.15 K, m1 = 0.042 | 990.7 | 1539.1
318.15 K, m1 = 0.045 | 990.72 | 1539.1

CCCC[N+](CCCC)(CCCC)CCCC.[Br-] [tetrabutylammonium bromide] + O
m1 = 0.01
Conditions | mass density [kg/m3] | speed of sound [m/s]
293.15 K | 998.57 | 1485.3
298.15 K | 997.35 | 1499.2
303.15 K | 995.88 | 1511.4
308.15 K | 994.29 | 1521.9
313.15 K | 992.33 | 1531
318.15 K | 990.43 | 1538.6

CCCCC[N+](CCCCC)(CCCCC)CCCCC.[Br-] [tetrapentylammonium bromide] + O
m1 = 0.01
Conditions | mass density [kg/m3] | speed of sound [m/s]
293.15 K | 998.34 | 1485.3
298.15 K | 997 | 1499.1
303.15 K | 995.7 | 1511.2
308.15 K | 994.05 | 1521.6
313.15 K | 991.93 | 1530.5
318.15 K | 990.16 | 1537.9
